From patent publication US4963363A, “Phospholipid delivery vehicle for aqueous-insoluble active ingredients” (priority 1989, dated 1990)
Where a name gives a salt, the structure may show the parent alone.

What was measured:
[1] = tested on: humans; details: in vivo, iv; cited from earlier work
[2] = Solubility of HXM in pure triglycerides; format: physicochemical; details: organic solvent or mixture
[3] = cited from earlier work
[4] = Compatibility of lipid triglycerides with HXM solubilization and phospholipid emulsion

CN(C)c1nc(N(C)C)nc(N(C)C)n1 [Gentisate salt of HXM]
local irritation [1]: severe local irritation

CN(C)c1nc(N(C)C)nc(N(C)C)n1 [HXM, 2,4,6-Tris(dimethylamino)-s-triazine]
solubility [2]: > 50000 µg/mL
solubility of the free drug in saline solution ([3]; saline solution, Wickes et al. 1985): 70 µg/mL
solubility of the free drug in water ([3]; water, Ames et al. 1982): 200 µg/mL

CCCCCCCC/C=C\CCCCCCCC(=O)OCC(COC(=O)CCCCCCC/C=C\CCCCCCCC)OC(=O)CCCCCCC/C=C\CCCCCCCC [triolein]
ability of triglyceride to solubilize HXM [4]: ineffective at solubilizing HXM
